# From patent publication US20230365546A1, “5-SUBSTITUTED INDOLE 3-AMIDE DERIVATIVES, PREPARATION METHOD AND USE THEREOF” (ORIGIANT PHARMACEUTICAL CO., LTD, priority 2020, published 2023)
# Legend:
# Experiment in all cases: Kinase Profiler 10 μM panel
# TLK2(h) = TLK2(h) (Homo sapiens (Human), UniProt Q86UE8)
# Protocol: (§1) In vitro kinase assays were conducted using Kinase Profiler services provided by Eurofins. The experimental method was as follows: the small molecule compound to be tested (0.001-10 μM), the protein kinase to be tested were incubated with a buffer containing substrate, 10 mM magnesium acetate, and [γ-^33P-ATP], the reaction was started by adding Mg\TPmix, after incubation for a period of time at room temperature, a 3% phosphate solution was added to the buffer to stop the reaction. Subsequently, 10 μL of the reaction mixture was quantitatively pipetted onto P30 filter paper, which was washed three times with 75 mM phosphate solution and then once with methanol. The P30 filter paper was air-dried and scintillation fluid was added for scintillation counting.
# HIPK3(h) = HIPK3(h) (Homo sapiens (Human), UniProt Q9H422)
# Protocol: as §1
# ULK3(h) = ULK3(h) (Homo sapiens (Human), UniProt Q6PHR2)
# Protocol: as §1
# MAPK1(h) = MAPK1(h) (Homo sapiens (Human), UniProt P27361)
# Protocol: as §1
# ARK5(h) = ARK5(h) (Homo sapiens (Human), UniProt O60285)
# Protocol: as §1
# BrSK1(h) = BrSK1(h) (Homo sapiens (Human), UniProt Q8TDC3)
# Protocol: as §1
# [1] = molecular target: PI3 Kinase (p110a/p65a)(m) (Mus musculus (Mouse), UniProt P42337)
# Protocol: as §1
# EphB4(h) = EphB4(h) (Homo sapiens (Human), UniProt P54760)
# Protocol: as §1
# [2] = molecular target: PI3 Kinase (p110a/p85a)(m) (Mus musculus (Mouse), UniProt P42337)
# Protocol: as §1
# Lck(h) activated = Lck(h) activated (Homo sapiens (Human), UniProt P06239)
# Protocol: as §1
# SAPK3(h) = SAPK3(h) (Homo sapiens (Human), UniProt P53778)
# Protocol: as §1
# MAPKAP-K3(h) = MAPKAP-K3(h) (Homo sapiens (Human), UniProt Q16644)
# Protocol: as §1
# IRR(h) = IRR(h) (Homo sapiens (Human), UniProt P14616)
# Protocol: as §1
# PrKX(h) = PrKX(h) (Homo sapiens (Human), UniProt P51817)
# Protocol: as §1
# BMPR2(h) = BMPR2(h) (Homo sapiens (Human), UniProt Q13873)
# Protocol: as §1
# TAO2(h) = TAO2(h) (Homo sapiens (Human), UniProt Q9UL54)
# Protocol: as §1
# DYRK1A(h) = DYRK1A(h) (Homo sapiens (Human), UniProt Q13627)
# Protocol: as §1
# Abl (Q252H)(h) = Abl (Q252H)(h) (Homo sapiens (Human), UniProt P00519, Q252H)
# Protocol: as §1
# PRK2(h) = PRK2(h) (Homo sapiens (Human), UniProt Q16513)
# Protocol: as §1
# CDKL4(h) = CDKL4(h) (Homo sapiens (Human), UniProt Q5MAI5)
# Protocol: as §1
# PDGFRα(h) = PDGFRα(h) (Homo sapiens (Human), UniProt P16234)
# Protocol: as §1
# B-Raf(V599E)(h) = B-Raf(V599E)(h) (Homo sapiens (Human), UniProt P15056, V600E)
# Protocol: as §1
# STK32B(h) = STK32B(h) (Homo sapiens (Human), UniProt Q9NY57)
# Protocol: as §1
# [3] = molecular target: PI3 Kinase (p110a(E545K)/p85a)(h) (Homo sapiens (Human), UniProt P42336, E545K)
# Protocol: as §1
# Fes(h) = Fes(h) (Homo sapiens (Human), UniProt P07332)
# Protocol: as §1
# PI3KC2a(h) = PI3KC2a(h) (Homo sapiens (Human), UniProt O00443)
# Protocol: as §1
# IRAK1(h) = IRAK1(h) (Homo sapiens (Human), UniProt P51617)
# Protocol: as §1
# CaMKIIγ(h) = CaMKIIγ(h) (Homo sapiens (Human), UniProt Q13555)
# Protocol: as §1
# PhKγ2(h) = PhKγ2(h) (Homo sapiens (Human), UniProt P15735)
# Protocol: as §1
# Haspin(h) = Haspin(h) (Homo sapiens (Human), UniProt Q8TF76)
# Protocol: as §1
# NLK(h) = NLK(h) (Homo sapiens (Human), UniProt Q9UBE8)
# Protocol: as §1
# PKCα(h) = PKCα(h) (Homo sapiens (Human), UniProt P17252)
# Protocol: as §1
# Snk(h) = Snk(h) (Homo sapiens (Human), UniProt Q9NYY3)
# Protocol: as §1
# BrSK1(h), sequence (Q8TDC3 whole entry): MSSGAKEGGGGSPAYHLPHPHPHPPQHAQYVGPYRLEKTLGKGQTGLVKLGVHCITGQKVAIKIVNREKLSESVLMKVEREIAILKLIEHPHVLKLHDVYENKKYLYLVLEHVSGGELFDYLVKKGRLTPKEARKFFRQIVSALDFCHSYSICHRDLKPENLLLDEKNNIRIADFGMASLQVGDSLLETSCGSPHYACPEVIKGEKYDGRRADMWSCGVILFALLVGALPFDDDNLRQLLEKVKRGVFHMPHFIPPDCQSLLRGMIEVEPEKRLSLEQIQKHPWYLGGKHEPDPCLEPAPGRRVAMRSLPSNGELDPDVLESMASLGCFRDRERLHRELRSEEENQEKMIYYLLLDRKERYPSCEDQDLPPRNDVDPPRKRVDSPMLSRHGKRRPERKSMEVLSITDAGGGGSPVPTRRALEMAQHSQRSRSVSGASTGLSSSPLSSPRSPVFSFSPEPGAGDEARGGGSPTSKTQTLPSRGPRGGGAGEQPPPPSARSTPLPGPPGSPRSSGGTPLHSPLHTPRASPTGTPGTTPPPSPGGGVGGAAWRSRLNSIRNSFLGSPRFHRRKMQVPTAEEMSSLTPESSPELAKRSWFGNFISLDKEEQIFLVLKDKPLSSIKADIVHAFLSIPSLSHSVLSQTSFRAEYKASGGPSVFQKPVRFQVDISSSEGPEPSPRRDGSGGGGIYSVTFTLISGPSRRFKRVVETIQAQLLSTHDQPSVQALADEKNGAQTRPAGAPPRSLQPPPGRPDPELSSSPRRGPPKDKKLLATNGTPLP
# MAPK1(h), sequence (P27361 whole entry): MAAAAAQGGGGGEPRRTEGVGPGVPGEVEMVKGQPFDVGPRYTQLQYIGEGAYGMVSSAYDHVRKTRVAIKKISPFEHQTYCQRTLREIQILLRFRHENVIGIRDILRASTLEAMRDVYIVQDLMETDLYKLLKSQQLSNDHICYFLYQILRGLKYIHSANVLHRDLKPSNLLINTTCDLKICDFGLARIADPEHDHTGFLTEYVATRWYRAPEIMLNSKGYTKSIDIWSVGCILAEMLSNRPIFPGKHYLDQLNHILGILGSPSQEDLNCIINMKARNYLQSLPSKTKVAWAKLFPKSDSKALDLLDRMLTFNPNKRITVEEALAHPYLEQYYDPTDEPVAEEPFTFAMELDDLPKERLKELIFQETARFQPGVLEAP
# Haspin(h), sequence (Q8TF76 whole entry): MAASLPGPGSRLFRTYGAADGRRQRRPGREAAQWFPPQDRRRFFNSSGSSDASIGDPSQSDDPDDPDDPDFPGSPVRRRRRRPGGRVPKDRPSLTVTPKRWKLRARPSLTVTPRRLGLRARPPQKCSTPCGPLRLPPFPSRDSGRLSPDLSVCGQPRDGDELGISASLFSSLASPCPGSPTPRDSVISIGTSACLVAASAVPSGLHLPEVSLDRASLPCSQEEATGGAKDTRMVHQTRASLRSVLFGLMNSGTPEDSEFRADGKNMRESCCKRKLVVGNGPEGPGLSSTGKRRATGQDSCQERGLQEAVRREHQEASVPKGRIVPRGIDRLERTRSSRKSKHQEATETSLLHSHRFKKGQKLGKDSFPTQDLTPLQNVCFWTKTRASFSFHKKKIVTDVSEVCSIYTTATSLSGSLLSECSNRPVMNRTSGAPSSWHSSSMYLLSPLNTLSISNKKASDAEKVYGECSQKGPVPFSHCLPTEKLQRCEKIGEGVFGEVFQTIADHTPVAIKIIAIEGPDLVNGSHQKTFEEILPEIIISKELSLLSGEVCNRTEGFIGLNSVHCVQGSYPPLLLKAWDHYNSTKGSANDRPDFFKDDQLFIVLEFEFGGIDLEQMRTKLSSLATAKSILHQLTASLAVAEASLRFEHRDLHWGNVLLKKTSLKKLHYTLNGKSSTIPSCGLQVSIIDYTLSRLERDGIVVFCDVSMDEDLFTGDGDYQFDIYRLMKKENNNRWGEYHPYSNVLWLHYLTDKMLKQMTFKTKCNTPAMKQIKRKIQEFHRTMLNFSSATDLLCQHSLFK
# PI3KC2a(h), sequence (O00443 whole entry): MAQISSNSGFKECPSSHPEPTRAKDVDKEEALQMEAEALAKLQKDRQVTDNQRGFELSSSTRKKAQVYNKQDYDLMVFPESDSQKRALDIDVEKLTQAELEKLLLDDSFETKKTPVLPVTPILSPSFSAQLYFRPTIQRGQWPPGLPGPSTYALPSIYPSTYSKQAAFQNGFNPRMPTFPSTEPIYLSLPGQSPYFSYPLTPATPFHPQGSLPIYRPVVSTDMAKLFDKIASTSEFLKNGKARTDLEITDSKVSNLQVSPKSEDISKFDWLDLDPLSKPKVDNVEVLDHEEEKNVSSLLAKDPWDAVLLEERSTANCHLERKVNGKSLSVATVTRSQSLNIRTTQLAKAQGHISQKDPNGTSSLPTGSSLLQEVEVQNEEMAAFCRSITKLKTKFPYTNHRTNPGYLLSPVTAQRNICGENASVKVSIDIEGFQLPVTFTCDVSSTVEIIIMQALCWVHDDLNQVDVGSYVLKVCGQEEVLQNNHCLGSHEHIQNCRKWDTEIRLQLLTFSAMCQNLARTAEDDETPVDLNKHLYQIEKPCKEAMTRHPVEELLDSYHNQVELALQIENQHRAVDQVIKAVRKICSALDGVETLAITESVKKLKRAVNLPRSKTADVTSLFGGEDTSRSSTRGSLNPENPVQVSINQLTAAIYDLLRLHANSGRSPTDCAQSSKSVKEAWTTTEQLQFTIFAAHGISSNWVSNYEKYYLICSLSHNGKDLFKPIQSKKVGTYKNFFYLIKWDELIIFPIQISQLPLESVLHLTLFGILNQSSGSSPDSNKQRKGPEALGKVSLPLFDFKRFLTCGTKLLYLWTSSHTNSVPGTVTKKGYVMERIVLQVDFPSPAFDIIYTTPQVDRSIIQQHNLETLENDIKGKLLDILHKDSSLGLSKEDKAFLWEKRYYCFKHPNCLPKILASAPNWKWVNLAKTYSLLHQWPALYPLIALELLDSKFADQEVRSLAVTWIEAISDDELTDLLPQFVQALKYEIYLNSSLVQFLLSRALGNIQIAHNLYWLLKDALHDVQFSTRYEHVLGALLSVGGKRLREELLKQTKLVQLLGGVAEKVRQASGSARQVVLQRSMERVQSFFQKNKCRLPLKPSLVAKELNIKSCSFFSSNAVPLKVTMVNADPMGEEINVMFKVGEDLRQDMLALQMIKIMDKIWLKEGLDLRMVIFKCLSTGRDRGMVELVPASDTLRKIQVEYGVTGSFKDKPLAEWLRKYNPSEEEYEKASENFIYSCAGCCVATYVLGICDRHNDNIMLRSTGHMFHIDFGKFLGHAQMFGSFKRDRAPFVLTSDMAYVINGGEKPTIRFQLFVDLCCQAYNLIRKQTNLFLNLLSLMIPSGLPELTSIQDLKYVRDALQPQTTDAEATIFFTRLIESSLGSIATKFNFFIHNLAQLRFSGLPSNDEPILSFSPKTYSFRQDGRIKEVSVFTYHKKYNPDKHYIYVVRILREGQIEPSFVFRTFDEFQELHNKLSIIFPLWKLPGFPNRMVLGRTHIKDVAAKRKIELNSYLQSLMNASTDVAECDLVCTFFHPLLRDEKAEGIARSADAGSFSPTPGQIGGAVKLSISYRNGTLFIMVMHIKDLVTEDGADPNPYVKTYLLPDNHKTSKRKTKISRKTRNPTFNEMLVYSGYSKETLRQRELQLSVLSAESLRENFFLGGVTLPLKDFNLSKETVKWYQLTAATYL
# Fes(h), sequence (P07332 whole entry): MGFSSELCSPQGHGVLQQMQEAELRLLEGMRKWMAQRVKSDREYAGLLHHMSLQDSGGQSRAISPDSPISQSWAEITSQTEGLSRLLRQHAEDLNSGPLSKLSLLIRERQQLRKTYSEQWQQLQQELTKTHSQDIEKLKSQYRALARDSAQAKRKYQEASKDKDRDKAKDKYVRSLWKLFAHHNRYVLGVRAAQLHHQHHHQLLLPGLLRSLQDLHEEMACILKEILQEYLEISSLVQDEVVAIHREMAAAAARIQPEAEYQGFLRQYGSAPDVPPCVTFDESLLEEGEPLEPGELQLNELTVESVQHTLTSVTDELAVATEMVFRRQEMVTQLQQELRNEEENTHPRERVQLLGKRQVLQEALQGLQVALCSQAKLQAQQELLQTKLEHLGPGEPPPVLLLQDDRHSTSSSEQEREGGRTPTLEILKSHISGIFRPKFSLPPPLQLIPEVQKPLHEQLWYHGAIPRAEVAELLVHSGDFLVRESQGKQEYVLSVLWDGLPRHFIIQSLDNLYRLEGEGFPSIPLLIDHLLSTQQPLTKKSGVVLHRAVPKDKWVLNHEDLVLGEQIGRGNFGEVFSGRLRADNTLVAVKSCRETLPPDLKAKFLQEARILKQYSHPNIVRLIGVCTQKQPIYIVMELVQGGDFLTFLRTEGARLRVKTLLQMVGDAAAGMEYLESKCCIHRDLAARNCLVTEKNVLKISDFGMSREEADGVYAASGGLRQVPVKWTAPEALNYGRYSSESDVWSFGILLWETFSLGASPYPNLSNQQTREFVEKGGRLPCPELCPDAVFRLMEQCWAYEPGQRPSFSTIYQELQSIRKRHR
# MAPKAP-K3(h), sequence (Q16644 whole entry): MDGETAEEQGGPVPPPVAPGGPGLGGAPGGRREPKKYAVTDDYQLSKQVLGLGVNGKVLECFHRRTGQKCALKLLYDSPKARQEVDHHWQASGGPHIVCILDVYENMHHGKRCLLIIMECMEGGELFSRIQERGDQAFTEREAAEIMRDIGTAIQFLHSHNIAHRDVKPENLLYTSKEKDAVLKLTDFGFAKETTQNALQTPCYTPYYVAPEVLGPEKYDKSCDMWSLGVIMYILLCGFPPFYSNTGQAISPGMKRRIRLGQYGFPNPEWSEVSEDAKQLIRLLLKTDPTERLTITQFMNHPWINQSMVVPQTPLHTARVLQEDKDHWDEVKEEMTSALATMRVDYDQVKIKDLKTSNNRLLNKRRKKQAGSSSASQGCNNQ
smiles,measurement,setting,value
"C[C@H](NC(=O)c1c[nH]c2ccc(-c3ccc4nc(NC(=O)C5CC5)sc4c3)cc12)c1cccc(F)c1 [Compound 34, (S)-5-(2-(cyclopropanecarboxamido)benzo[d]thiazol-6-yl)-N-(1-(3-fluorophenyl)ethyl)-1H-indole-3-carboxamide]",Inhibition ratio,TLK2(h),5%
same,Inhibition ratio,HIPK3(h),79%
same,Inhibition ratio,ULK3(h),30%
same,Inhibition ratio,MAPK1(h),25%
same,Inhibition ratio,ARK5(h),43%
same,Inhibition ratio,BrSK1(h),−28%
same,Inhibition ratio,[1],30%
same,Inhibition ratio,EphB4(h),11%
same,Inhibition ratio,[2],43%
same,Inhibition ratio,Lck(h) activated,76%
same,Inhibition ratio,SAPK3(h),84%
same,Inhibition ratio,MAPKAP-K3(h),−1%
same,Inhibition ratio,IRR(h),50%
same,Inhibition ratio,PrKX(h),6%
same,Inhibition ratio,BMPR2(h),30%
same,Inhibition ratio,TAO2(h),58%
same,Inhibition ratio,DYRK1A(h),47%
same,Inhibition ratio,Abl (Q252H)(h),97%
same,Inhibition ratio,PRK2(h),0%
same,Inhibition ratio,CDKL4(h),56%
same,Inhibition ratio,PDGFRα(h),32%
same,Inhibition ratio,B-Raf(V599E)(h),14%
same,Inhibition ratio,STK32B(h),−2%
same,Inhibition ratio,[3],32%
same,Inhibition ratio,Fes(h),26%
same,Inhibition ratio,PI3KC2a(h),16%
same,Inhibition ratio,IRAK1(h),32%
same,Inhibition ratio,CaMKIIγ(h),2%
same,Inhibition ratio,PhKγ2(h),5%
same,Inhibition ratio,Haspin(h),39%
same,Inhibition ratio,NLK(h),25%
same,Inhibition ratio,PKCα(h),6%
same,Inhibition ratio,Snk(h),0%
"C[C@H](NC(=O)c1cn(C)c2ccc(-c3ccn4nc(NC(=O)C5CC5)nc4c3)cc12)c1cccc(F)c1 [Compound 94, (S)-5-(2-(cyclopropanecarboxamido)-[1,2,4]triazolo[1,5-a]pyridin-7-yl)-N-(1-(3-fluorophenyl)ethyl)-1-methyl-1H-indole-3-carboxamide]",Inhibition ratio/%,TLK2(h),25%
same,Inhibition ratio/%,HIPK3(h),62%
same,Inhibition ratio/%,ULK3(h),3%
same,Inhibition ratio/%,MAPK1(h),33%
same,Inhibition ratio/%,ARK5(h),8%
same,Inhibition ratio/%,BrSK1(h),31%
same,Inhibition ratio/%,[1],10%
same,Inhibition ratio/%,EphB4(h),56%
same,Inhibition ratio/%,[2],−16%
same,Inhibition ratio/%,Lck(h) activated,46%
same,Inhibition ratio/%,SAPK3(h),46%
same,Inhibition ratio/%,MAPKAP-K3(h),−12%
same,Inhibition ratio/%,IRR(h),33%
same,Inhibition ratio/%,PrKX(h),−10%
same,Inhibition ratio/%,BMPR2(h),−6%
same,Inhibition ratio/%,TAO2(h),−14%
same,Inhibition ratio/%,DYRK1A(h),2%
same,Inhibition ratio/%,Abl (Q252H)(h),29%
same,Inhibition ratio/%,PRK2(h),−4%
same,Inhibition ratio/%,CDKL4(h),76%
same,Inhibition ratio/%,PDGFRα(h),51%
same,Inhibition ratio/%,B-Raf(V599E)(h),−10%
same,Inhibition ratio/%,STK32B(h),27%
same,Inhibition ratio/%,[3],33%
same,Inhibition ratio/%,Fes(h),54%
same,Inhibition ratio/%,PI3KC2a(h),40%
same,Inhibition ratio/%,IRAK1(h),23%
same,Inhibition ratio/%,CaMKIIγ(h),−15%
same,Inhibition ratio/%,PhKγ2(h),48%
same,Inhibition ratio/%,Haspin(h),48%
same,Inhibition ratio/%,NLK(h),16%
same,Inhibition ratio/%,PKCα(h),16%
same,Inhibition ratio/%,Snk(h),1%
